Measured values: the supplement of paper PMC4862054

Columns and labels:
Conditions in all cases: 72 h
[1] = tested on: HCC1143
Procedure, shortened: (§1)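 Plates of 384 wells holding compound in 5 µl medium received breast cancer cell lines in 20 µl suspension and were incubated 72 h. CellTiter-Blue (2.5 µl, 2 h, 37 °C) was used for viability, read at 560/590 nm, and every plate was normalised to vehicle and a positive kill control and assessed by Z'-factor. The EC50 derives from a percent-inhibition dose-response curve fit censored at the highest concentration, leaving out rows whose drug sensitivity score was zero.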

[2] = tested on: MDA-MB-231
Procedure, shortened: as §1

[3] = tested on: MDA-MB-468
Experimental: (§2)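 Drug sensitivity and resistance testing (DSRT) of breast cancer cell lines in 384-well plates, 5 concentrations in 10-fold dilutions over a compound-specific 10,000-fold range. After 72 h, cytotoxicity was read by CellTox Green fluorescence and viability by CellTiter-Glo luminescence (multiplexed), normalised to DMSO and benzethonium chloride controls. EC50 is the inflection point of the fitted dose-response curve (bottom asymptote free, so it can be relative for partial curves) and is censored at the highest tested concentration. Rows with DSS 0 (no meaningful response) were excluded.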

[4] = tested on: MDA-MB-231; remark: listed apart in the source
Experimental: as §2

[5] = tested on: BT-549
Procedure, shortened: (§3)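 In this assay, breast cancer cell lines spent 72 h with compound at 5 concentrations in 10-fold steps over a compound-specific 10,000-fold range. The first readout was cell death by CellTox Green fluorescence, and the second was viability by CellTiter-Glo luminescence, each normalised per plate to 0.1 % DMSO and a positive kill control. EC50 came from the dose-response curves, censored at the top concentration.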

[6] = tested on: DU-4475
Procedure, shortened: as §1

[7] = tested on: MDA-MB-468; remark: listed apart in the source
Procedure, shortened: as §1

[8] = tested on: MFM-223
Procedure, shortened: as §1

[9] = tested on: BT-474
Procedure, shortened: as §1

[10] = tested on: HCC1599
Procedure, shortened: as §1

[11] = tested on: Hs578T
Procedure, shortened: as §1

[12] = tested on: BT-549; remark: listed apart in the source
Experimental: as §2

[13] = tested on: MFM-223; remark: listed apart in the source
Experimental: as §2

[14] = tested on: HDQ-P1
Experimental: as §2

[15] = tested on: BT-474; remark: listed apart in the source
Experimental: as §2

[16] = tested on: CAL-51
Experimental: as §2

[17] = tested on: MCF-10A
Experimental: as §2

[18] = tested on: CAL-85-1
Experimental: as §2

[19] = tested on: Hs578T; remark: listed apart in the source
Experimental: as §2

[20] = tested on: MDA-MB-453
Procedure, shortened: as §3

[21] = tested on: MDA-MB-436
Procedure, shortened: as §3

[22] = tested on: HCC1143; remark: listed apart in the source
Procedure, shortened: as §3

[23] = tested on: MDA-MB-231; remark: listed apart in the source
Procedure, shortened: as §3

[24] = tested on: DU-4475; remark: listed apart in the source
Procedure, shortened: as §3

[25] = tested on: MFM-223; remark: listed apart in the source
Procedure, shortened: as §3

[26] = tested on: CAL-148
Procedure, shortened: as §3

[27] = tested on: HDQ-P1; remark: listed apart in the source
Procedure, shortened: as §3

[28] = tested on: BT-474; remark: listed apart in the source
Procedure, shortened: as §3

[29] = tested on: HCC1599; remark: listed apart in the source
Procedure, shortened: as §3

[30] = tested on: HCC1937
Procedure, shortened: as §3

[31] = tested on: CAL-51; remark: listed apart in the source
Procedure, shortened: as §3

[32] = tested on: MCF-10A; remark: listed apart in the source
Procedure, shortened: as §3

[33] = tested on: SK-BR-3
Procedure, shortened: as §3

[34] = tested on: CAL-85-1; remark: listed apart in the source
Procedure, shortened: as §3

[35] = tested on: Hs578T; remark: listed apart in the source
Procedure, shortened: as §3

[36] = tested on: MDA-MB-453; remark: listed apart in the source
Procedure, shortened: as §1

[37] = tested on: HDQ-P1; remark: listed apart in the source
Procedure, shortened: as §1

[38] = tested on: CAL-85-1; remark: listed apart in the source
Procedure, shortened: as §1

[39] = tested on: CAL-148; remark: listed apart in the source
Experimental: as §2

[40] = tested on: HCC1937; remark: listed apart in the source
Experimental: as §2

[41] = tested on: CAL-120
Experimental: as §2

Compound	EC50, CellTiter-Blue viability [1] [nM]	EC50, CellTiter-Blue viability [2] [nM]	EC50, CellTox Green [3] [nM]	EC50, CellTox Green [4] [nM]	EC50, CellTiter-Glo [5] [nM]	EC50, CellTiter-Blue viability [6] [nM]	EC50, CellTiter-Blue viability [7] [nM]	EC50, CellTiter-Blue viability [8] [nM]	EC50, CellTiter-Blue viability [9] [nM]	EC50, CellTox Green [16] [nM]	EC50, CellTiter-Glo [21] [nM]	EC50, CellTiter-Glo [22] [nM]	EC50, CellTiter-Glo [23] [nM]	EC50, CellTiter-Glo [24] [nM]	EC50, CellTiter-Glo [25] [nM]	EC50, CellTiter-Glo [26] [nM]	EC50, CellTiter-Glo [27] [nM]	EC50, CellTiter-Glo [28] [nM]	EC50, CellTiter-Glo [31] [nM]	EC50, CellTiter-Glo [35] [nM]	further results
Nc1nc(Cl)nc2c1ncn2[C@H]1C[C@H](O)[C@@H](CO)O1 [Cladribine]	> 1000	9.12	2.5	> 1000	125	879	–	–	–	–	–	–	–	–	–	–	–	–	–	–	–
CN1CC[C@H](c2c(O)cc(O)c3c(=O)cc(-c4ccccc4Cl)oc23)[C@H](O)C1 [Alvocidib]	127	190	–	135	294	141	278	174	278	806	143	359	242	282	335	243	183	183	167	376	EC50, CellTiter-Blue viability [10]: 165 nM; EC50, CellTiter-Blue viability [11]: 93.6 nM; EC50, CellTox Green [12]: 1010 nM; EC50, CellTox Green [13]: 558 nM; EC50, CellTox Green [14]: 167 nM; EC50, CellTox Green [15]: > 10000 nM; EC50, CellTox Green [17]: 420 nM; EC50, CellTox Green [18]: 473 nM; EC50, CellTox Green [19]: 1790 nM; EC50, CellTiter-Glo [20]: 548 nM; EC50, CellTiter-Glo [29]: 417 nM; EC50, CellTiter-Glo [30]: 357 nM; EC50, CellTiter-Glo [32]: 368 nM; EC50, CellTiter-Glo [33]: 218 nM; EC50, CellTiter-Glo [34]: 372 nM; EC50, CellTiter-Blue viability [36]: 165 nM; EC50, CellTiter-Blue viability [37]: 163 nM; EC50, CellTiter-Blue viability [38]: 153 nM
COc1cccc2c1C(=O)c1c(O)c3c(c(O)c1C2=O)C[C@@](O)(C(=O)CO)C[C@@H]3O[C@H]1C[C@H](N)[C@H](O)[C@H](C)O1 [Doxorubicin]	132	187	100	–	154	71.8	150	558	522	68	449	942	311	177	–	187	465	167	41.5	463	EC50, CellTiter-Blue viability [10]: 83.5 nM; EC50, CellTiter-Blue viability [11]: 147 nM; EC50, CellTox Green [39]: 92.4 nM; EC50, CellTox Green [18]: 440 nM; EC50, CellTiter-Glo [20]: 607 nM; EC50, CellTiter-Glo [29]: 597 nM; EC50, CellTiter-Glo [32]: 856 nM; EC50, CellTiter-Glo [33]: 263 nM; EC50, CellTiter-Glo [34]: 547 nM; EC50, CellTiter-Blue viability [36]: 409 nM; EC50, CellTiter-Blue viability [37]: 259 nM; EC50, CellTiter-Blue viability [38]: 279 nM
COc1cc(Nc2ncc3c(n2)-c2ccc(Cl)cc2C(c2c(F)cccc2OC)=NC3)ccc1C(=O)O [Alisertib]	–	–	15.5	14.8	177	–	–	–	–	18.2	27	41.6	990	24.6	615	659	8410	76.1	76.4	77.9	EC50, CellTox Green [12]: 756 nM; EC50, CellTox Green [39]: 156 nM; EC50, CellTox Green [15]: 8370 nM; EC50, CellTox Green [40]: 7460 nM; EC50, CellTiter-Glo [30]: 1740 nM
CCN1CCN(c2ccc(Nc3cc(N(C)C(=O)Nc4c(Cl)c(OC)cc(OC)c4Cl)ncn3)cc2)CC1 [NVP-BGJ398]	–	–	–	–	–	–	–	–	–	–	–	–	–	–	50.5	–	–	–	–	> 1000	EC50, CellTox Green [41]: > 1000 nM
